From ChEMBL document CHEMBL1201862, “PubChem BioAssay data set” (2004)
Activity calls are given as the source filed them.

Legend:
[1] = test system: BJ; assay: cells; type: functional, cell-based; conditions: Homo sapiens
[2] = viability of HCT116 lacking mutant beta-catenin – cell-based, human colon tumor, dose response (AID 1045); type: functional;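 also: HCT116 colon tumor cells with beta catenin knocked out; cells exposed to compound for 60 hours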
[3] = DRD fibroblast viability loss – cell-based, non-viral oncogenic, luminescence, dose response (AID 1934); type: functional; conditions: Homo sapiens
[4] = biological target: Induced myeloid leukemia cell differentiation protein Mcl-1 (Homo sapiens, UniProt Q07820); type: functional
Sequence of Induced myeloid leukemia cell differentiation protein Mcl-1 (Q07820 whole entry): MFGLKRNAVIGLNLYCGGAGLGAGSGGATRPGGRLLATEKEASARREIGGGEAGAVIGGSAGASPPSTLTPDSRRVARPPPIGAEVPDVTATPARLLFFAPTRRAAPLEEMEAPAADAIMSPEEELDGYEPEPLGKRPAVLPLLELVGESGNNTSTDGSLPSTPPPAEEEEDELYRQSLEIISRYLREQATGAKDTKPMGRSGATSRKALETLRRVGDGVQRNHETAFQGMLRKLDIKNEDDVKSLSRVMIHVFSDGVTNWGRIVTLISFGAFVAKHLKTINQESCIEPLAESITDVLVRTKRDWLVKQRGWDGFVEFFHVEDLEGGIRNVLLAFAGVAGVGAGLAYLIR

[5] = test system: BJ; assay: growth inhibition of engineered Ras-driven BJ cells – cell-based, alamar blue fluorescence, cherrypicked samples, dose response (AID 2631); type: functional; conditions: Homo sapiens;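 also: confirmatory dose-response assay in RAS-dependent BJ fibroblasts engineered with TERT, LT and ST, with cytotoxicity read by fluorescence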
[6] = test system: BJ; assay: BJ-TERT fibroblast viability loss – cell-based, RAS-independent, luminescence, dose response (AID 1933); type: functional; conditions: Homo sapiens
[7] = viability of PTEN-deleted HCT116 cells – cell-based, HCT116 PTEN knockout, dose response (AID 1047); type: functional;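 also: HCT116 colon tumor cells with PTEN knocked out; cells exposed to compound for 60 hours before readout; potency for loss of cell viability measured by luminescence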
[8] = test system: BJ; assay: BJ-TERT-LT-ST fibroblast viability loss – cell-based, RAS-independent, luminescence, dose response (AID 1935); type: functional; conditions: Homo sapiens;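 also: BJ fibroblasts immortalized with TERT plus LT and ST oncogenes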
[9] = viability loss in THP-1 monocytes – THP-1 cells, cytotoxicity control for Vif-APOBEC3G degradation inhibitor project, dose response (AID 1117359); type: functional; conditions: THP-1
[10] = biological target: T1, Long-chain-fatty-acid--AMP ligase FadD28 (Mycobacterium tuberculosis, UniProt P9WQ59); assay: Fluorescence polarization aasay to screen for inhibitors that compete for the binding of FadD28 to a bisubstrate Measured in Biochemical System Using Plate Reader - 2147-01_Inhibitor_Dose_CherryPick_Activity.; type: functional, Mycobacterium tuberculosis H37Rv
T1 sequence (P9WQ59 whole entry): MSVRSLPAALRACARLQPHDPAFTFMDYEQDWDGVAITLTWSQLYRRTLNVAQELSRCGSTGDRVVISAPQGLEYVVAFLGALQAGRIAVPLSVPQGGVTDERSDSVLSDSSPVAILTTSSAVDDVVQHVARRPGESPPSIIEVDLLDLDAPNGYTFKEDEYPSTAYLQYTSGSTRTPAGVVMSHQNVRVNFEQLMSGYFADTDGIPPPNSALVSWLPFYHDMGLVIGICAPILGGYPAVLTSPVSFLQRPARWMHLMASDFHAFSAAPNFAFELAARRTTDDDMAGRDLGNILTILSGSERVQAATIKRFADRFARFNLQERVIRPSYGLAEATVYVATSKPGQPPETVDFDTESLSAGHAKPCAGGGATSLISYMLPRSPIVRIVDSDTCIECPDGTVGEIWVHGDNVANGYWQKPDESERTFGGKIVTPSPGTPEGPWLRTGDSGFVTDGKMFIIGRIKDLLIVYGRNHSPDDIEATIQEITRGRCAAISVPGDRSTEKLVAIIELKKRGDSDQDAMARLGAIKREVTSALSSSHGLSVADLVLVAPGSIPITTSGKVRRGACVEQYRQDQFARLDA

[11] = Luminescence Cell-Based Dose Retest to Confirm Inhibitors of Cancer Stem Cells. [Related pubchem assays (depositor defined):AID2717, AID2721]; type: functional; conditions: Homo sapiens
[12] = biological target: T2, Carboxy-terminal domain RNA polymerase II polypeptide A small phosphatase 1 (Homo sapiens, UniProt Q9GZU7); assay: CTDSP1 inhibitors, concentration-response, biochemical, absorbance readout, ultra-high-throughput screen actives (AID 540297); type: functional
T2 sequence (Q9GZU7 whole entry): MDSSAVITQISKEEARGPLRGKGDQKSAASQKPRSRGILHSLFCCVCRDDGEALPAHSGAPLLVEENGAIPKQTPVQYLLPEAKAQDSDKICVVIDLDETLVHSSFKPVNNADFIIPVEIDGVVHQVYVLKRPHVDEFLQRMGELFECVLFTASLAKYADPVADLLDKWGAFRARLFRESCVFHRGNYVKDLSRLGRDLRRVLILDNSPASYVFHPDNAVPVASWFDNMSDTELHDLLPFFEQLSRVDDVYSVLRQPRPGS

[13] = biological target: T3, Protein RecA (Mycobacterium tuberculosis, UniProt P9WHJ3); assay: Fluorescence Cell-Free Homogeneous Dose Retest to Identify Inhibitors of RecA-Intein Splicing Activity. [Related pubchem assays (depositor defined):AID2097, AID2223, AID489010, AID492950]; type: functional
T3 sequence (P9WHJ3 whole entry): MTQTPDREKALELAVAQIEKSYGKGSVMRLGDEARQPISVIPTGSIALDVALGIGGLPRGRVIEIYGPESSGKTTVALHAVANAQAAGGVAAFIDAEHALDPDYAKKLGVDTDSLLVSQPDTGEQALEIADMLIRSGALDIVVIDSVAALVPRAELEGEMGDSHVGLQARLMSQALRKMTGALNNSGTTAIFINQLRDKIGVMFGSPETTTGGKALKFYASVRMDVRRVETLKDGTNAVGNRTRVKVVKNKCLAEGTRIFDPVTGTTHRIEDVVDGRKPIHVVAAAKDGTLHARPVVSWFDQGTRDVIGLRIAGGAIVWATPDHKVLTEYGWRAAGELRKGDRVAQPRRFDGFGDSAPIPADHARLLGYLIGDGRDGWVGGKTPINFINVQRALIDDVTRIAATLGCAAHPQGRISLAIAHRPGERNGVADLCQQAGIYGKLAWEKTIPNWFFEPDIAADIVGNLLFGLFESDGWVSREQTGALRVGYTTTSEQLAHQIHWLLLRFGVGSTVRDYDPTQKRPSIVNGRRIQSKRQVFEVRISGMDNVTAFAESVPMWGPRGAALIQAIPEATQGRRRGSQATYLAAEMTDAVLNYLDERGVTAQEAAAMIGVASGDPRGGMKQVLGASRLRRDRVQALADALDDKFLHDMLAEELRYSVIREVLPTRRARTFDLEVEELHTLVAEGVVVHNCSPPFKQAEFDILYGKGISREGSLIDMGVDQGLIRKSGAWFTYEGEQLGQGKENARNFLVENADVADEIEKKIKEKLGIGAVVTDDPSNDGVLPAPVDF

[14] = microbe, parasite or virus in culture; type: functional; conditions: Mycobacterium tuberculosis
[15] = biological target: T4, Replicative DNA helicase DnaB (Mycobacterium tuberculosis, UniProt P9WMR3); assay: DnaB intein splicing inhibitors, dose response, biochemical, cell-free fluorescence (AID 449749); type: functional
T4 sequence (P9WMR3 whole entry): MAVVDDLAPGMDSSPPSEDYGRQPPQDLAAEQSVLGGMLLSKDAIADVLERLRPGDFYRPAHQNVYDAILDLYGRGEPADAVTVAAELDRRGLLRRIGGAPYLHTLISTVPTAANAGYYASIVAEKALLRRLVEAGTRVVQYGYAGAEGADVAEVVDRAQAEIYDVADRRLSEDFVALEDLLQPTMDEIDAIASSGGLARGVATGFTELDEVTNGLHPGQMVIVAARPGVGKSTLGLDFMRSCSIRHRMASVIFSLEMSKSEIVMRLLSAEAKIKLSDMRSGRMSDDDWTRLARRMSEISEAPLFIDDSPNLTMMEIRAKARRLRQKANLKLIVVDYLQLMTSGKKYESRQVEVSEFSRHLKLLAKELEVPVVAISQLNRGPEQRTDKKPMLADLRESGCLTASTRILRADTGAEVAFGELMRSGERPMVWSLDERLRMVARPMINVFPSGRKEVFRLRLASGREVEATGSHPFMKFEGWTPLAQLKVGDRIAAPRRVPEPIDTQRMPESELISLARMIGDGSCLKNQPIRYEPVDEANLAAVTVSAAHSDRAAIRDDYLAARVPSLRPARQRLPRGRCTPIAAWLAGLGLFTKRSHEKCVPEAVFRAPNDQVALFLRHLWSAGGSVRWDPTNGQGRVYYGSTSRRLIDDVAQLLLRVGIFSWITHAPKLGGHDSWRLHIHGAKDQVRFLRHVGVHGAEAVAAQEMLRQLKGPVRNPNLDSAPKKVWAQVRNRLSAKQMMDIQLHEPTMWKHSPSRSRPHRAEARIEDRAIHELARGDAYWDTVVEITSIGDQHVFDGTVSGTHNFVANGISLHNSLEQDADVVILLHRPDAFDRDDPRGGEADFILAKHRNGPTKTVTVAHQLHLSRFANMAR

[16] = biological target: T5, Corticotropin-releasing factor receptor 2/Corticotropin-releasing factor-binding protein (Homo sapiens, UniProt P24387+Q13324); assay: Dose Response confirmation of uHTS hits for small molecule antagonists of the CRF-binding protein and CRF-R2 receptor complex.; type: functional; conditions: read-out: IC50_Mean
T5 sequence (Q13324 whole entry): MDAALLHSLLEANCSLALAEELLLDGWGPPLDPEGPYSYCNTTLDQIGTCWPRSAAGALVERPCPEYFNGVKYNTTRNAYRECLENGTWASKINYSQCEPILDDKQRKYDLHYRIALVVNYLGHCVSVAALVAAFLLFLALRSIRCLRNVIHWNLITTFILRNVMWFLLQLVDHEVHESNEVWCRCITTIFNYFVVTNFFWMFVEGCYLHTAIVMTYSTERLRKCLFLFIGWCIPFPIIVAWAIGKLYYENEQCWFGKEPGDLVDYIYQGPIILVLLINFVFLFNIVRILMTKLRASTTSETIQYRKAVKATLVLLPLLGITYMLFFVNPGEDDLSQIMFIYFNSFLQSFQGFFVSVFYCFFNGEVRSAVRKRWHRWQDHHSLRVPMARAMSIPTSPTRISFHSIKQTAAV
T5 sequence (P24387 whole entry): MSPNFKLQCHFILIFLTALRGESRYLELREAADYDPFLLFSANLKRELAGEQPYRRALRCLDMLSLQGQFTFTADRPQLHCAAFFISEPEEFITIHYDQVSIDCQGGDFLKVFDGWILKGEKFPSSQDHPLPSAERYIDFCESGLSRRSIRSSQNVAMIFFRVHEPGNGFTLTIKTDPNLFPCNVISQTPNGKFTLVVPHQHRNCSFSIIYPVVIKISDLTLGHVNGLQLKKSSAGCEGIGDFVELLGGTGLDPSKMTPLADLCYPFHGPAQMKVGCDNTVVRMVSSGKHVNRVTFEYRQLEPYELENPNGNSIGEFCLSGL

[17] = biological target: T5, Corticotropin-releasing factor receptor 2/Corticotropin-releasing factor-binding protein; assay: activators of CRF receptor 2 with binding protein – uHTS hits, confirmation (AID 602473); type: functional; conditions: read-out: EC50_Mean
[18] = blockers of CRF-binding protein–CRF-R2 complex – cell-based, uHTS hits, 384-well, dose response (AID 651639); type: functional, Homo sapiens; conditions: read-out: IC50_Mean

## CCOc1ccccc1Nc1nc(-c2sc(NC(=O)c3ccc([N+](=O)[O-])cc3)nc2C)cs1
[1]
  EC50: 12.7 µM (active)
[2]
  EC50: 7.38 µM (active)
[3]
  EC50: 7.92 µM (active)
[4]
  IC50: 13.4 µM (active)
[5]
  EC50: > 133 µM (inactive)
[6]
  EC50: 7.64 µM (active)
[7]
  EC50: 9.09 µM (active)
[8]
  EC50: > 150 µM (inconclusive)

## COc1ccc(C)cc1Nc1c2c(nc3ccccc13)CCC2
[1]
  EC50: 15.1 µM (inconclusive)
[3]
  EC50: 7.71 µM (inconclusive)
[9]
  CC50: 0.62 µM (active)
[5]
  EC50: 0.174 µM (active)
[6]
  EC50: 3.98 µM (inconclusive)
[8]
  EC50: 1 µM (inconclusive)

## CC1=NN(c2nc(-c3ccc(F)cc3)cs2)C(=O)C1
[10]
  AC50: 32 µM (inactive)
[11]
  AC50: 7.23 µM (active)

## Cc1cccc(NC(=O)CN2C(=O)S/C(=C\c3ccc(O)c([N+](=O)[O-])c3)C2=O)c1
[10]
  AC50: 0.102 µM (active)
[12]
  IC50: 3.43 µM (active)

## CCc1nnc(NS(=O)(=O)c2ccc(NC(=O)Nc3ccc(OC)cc3)cc2)s1
[10]
  AC50: 73.5 µM (active)

## Cc1ccc(C2CC(c3cccs3)=NN2C(=O)CCl)cc1 (stereo not given)
[1]
  EC50: 5.54 µM (active)
[13]
  EC50: 0.943 µM (active)
[3]
  EC50: 5.15 µM (inconclusive)
[14]
  CC50: 2.24 µM (active)
[5]
  EC50: 2.87 µM (active)
[15]
  AC50: 1.23 µM (active)
[6]
  EC50: 0.911 µM (active)
[8]
  EC50: 6 µM (active)

## Cc1nc(Sc2ccccc2)c(C#N)cc1-c1ccccc1
[16]
  IC50: < 0.368 µM (active)
[17]
  EC50: > 53 µM (inactive)
[18]
  IC50: > 20 µM (inactive)
